Data: patent EP2147919A1, “Heterocyclic substituted amides, method for their manufacture and their use as herbicides” (Bayer CropScience Aktiengesellschaft, priority 2008, dated 2010)

Tests used:
[1] = tested on: STEME; experiment: Herbicidal action pre-emergence (greenhouse pot test, visual rating); assay type: in vivo, Stellaria media; conditions: Vorauflauf, 1280 g/ha, visual rating after 3 weeks vs untreated controls
From the text: (§1) Samen von mono- bzw. dikotylen Unkraut- bzw. Kulturpflanzen werden in Holzfasertöpfen in sandiger Lehmerde ausgelegt und mit Erde abgedeckt. Die in Form von benetzbaren Pulvern (WP) oder als Emulsionskonzentrate (EC) formulierten erfindungsgemäßen Verbindungen werden dann als wäßrige Suspension bzw. Emulsion mit einer Wasseraufwandmenge von umgerechnet 600 bis 800 l/ha unter Zusatz von 0,2% Netzmittel auf die Oberfläche der Abdeckerde appliziert.
(§2) Nach der Behandlung werden die Töpfe im Gewächshaus aufgestellt und unter guten Wachstumsbedingungen für die Testpflanzen gehalten. Die visuelle Bonitur der Schäden an den Versuchspflanzen erfolgt nach einer Versuchszeit von 3 Wochen im Vergleich zu unbehandelten Kontrollen (herbizide Wirkung in Prozent (%): 100% Wirkung = Pflanzen sind abgestorben, 0 % Wirkung = wie Kontrollpflanzen).

[2] = tested on: VIOTR; experiment: as above; assay type: in vivo, Viola tricolor; conditions: Vorauflauf, 1280 g/ha, visual rating after 3 weeks vs untreated controls
From the text: as §1, §2

[3] = tested on: VERPE; experiment: as above; assay type: in vivo, Veronica persica; conditions: Vorauflauf, 1280 g/ha, visual rating after 3 weeks vs untreated controls
From the text: as §1, §2

[4] = Log P; assay type: physicochemical
[5] = tested on: SETVI; experiment: Herbicidal action pre-emergence (greenhouse pot test, visual rating); assay type: in vivo, Setaria viridis; conditions: Vorauflauf, 1280 g/ha, visual rating after 3 weeks vs untreated controls
From the text: as §1, §2

[6] = tested on: ECHCG; experiment: as above; assay type: in vivo, Echinochloa crus-galli; conditions: Vorauflauf, 1280 g/ha, visual rating after 3 weeks vs untreated controls
From the text: as §1, §2

[7] = tested on: AMARE; experiment: as above; assay type: in vivo, Amaranthus retroflexus; conditions: Vorauflauf, 1280 g/ha, visual rating after 3 weeks vs untreated controls
From the text: as §1, §2

[8] = tested on: ALOMY; experiment: as above; assay type: in vivo, Alopecurus myosuroides; conditions: Vorauflauf, 1280 g/ha, visual rating after 3 weeks vs untreated controls
From the text: as §1, §2

[9] = tested on: ABUTH; experiment: as above; assay type: in vivo, Abutilon theophrasti; conditions: Vorauflauf, 1280 g/ha, visual rating after 3 weeks vs untreated controls
From the text: as §1, §2

[10] = tested on: Schadpflanzen; experiment: Herbicidal action pre-emergence, summary over the weed spectrum; assay type: in vivo; conditions: Vorauflaufverfahren, Aufwandmenge von 1.28 kg und weniger Aktivsubstanz pro Hektar
From the text: as §1, §2

[11] = tested on: MATIN; experiment: Herbicidal action pre-emergence (greenhouse pot test, visual rating); assay type: in vivo, Matricaria inodora; conditions: Vorauflauf, 1280 g/ha, visual rating after 3 weeks vs untreated controls
From the text: as §1, §2

[12] = tested on: LOLMU; experiment: as above; assay type: in vivo, Lolium multiflorum; conditions: Vorauflauf, 1280 g/ha, visual rating after 3 weeks vs untreated controls
From the text: as §1, §2

[13] = tested on: POLCO; experiment: as above; assay type: in vivo, Polygonum convolvolus; conditions: Vorauflauf, 1280 g/ha, visual rating after 3 weeks vs untreated controls
From the text: as §1, §2

[14] = tested on: VERPE; experiment: Herbicidal action post-emergence (greenhouse pot test, visual rating); assay type: in vivo, Veronica persica; conditions: Nachauflauf, 1280 g/ha, visual rating after ca. 3 weeks vs untreated controls
From the text: (§3) Samen von mono- bzw. dikotylen Unkraut- bzw. Kulturpflanzen werden in Holzfasertöpfen in sandigem Lehmboden ausgelegt, mit Erde abgedeckt und im Gewächshaus unter guten Wachstumsbedingungen angezogen. 2 bis 3 Wochen nach der Aussaat werden die Versuchspflanzen im Einblattstadium behandelt. Die in Form von benetzbaren Pulvern (WP) oder als Emulsionskonzentrate (EC) formulierten erfindungsgemäßen Verbindungen werden dann als wäßrige Suspension bzw. Emulsion mit einer Wasseraufwandmenge von umgerechnet 600 bis 800 l/ha unter Zusatz von 0,2% Netzmittel auf die grünen Pflanzenteile gesprüht. Nach ca. 3 Wochen Standzeit der Versuchspflanzen im Gewächshaus unter optimalen Wachstumsbedingungen wird die Wirkung der Präparate visuell im Vergleich zu unbehandelten Kontrollen bonitiert (herbizide Wirkung in Prozent (%): 100% Wirkung = Pflanzen sind abgestorben, 0 % Wirkung = wie Kontrollpflanzen).

[15] = tested on: STEME; experiment: as above; assay type: in vivo, Stellaria media; conditions: Nachauflauf, 1280 g/ha, visual rating after ca. 3 weeks vs untreated controls
From the text: as §3

[16] = tested on: VIOTR; experiment: as above; assay type: in vivo, Viola tricolor; conditions: Nachauflauf, 1280 g/ha, visual rating after ca. 3 weeks vs untreated controls
From the text: as §3

[17] = tested on: MATIN; experiment: as above; assay type: in vivo, Matricaria inodora; conditions: Nachauflauf, 1280 g/ha, visual rating after ca. 3 weeks vs untreated controls
From the text: as §3

[18] = tested on: ABUTH; experiment: as above; assay type: in vivo, Abutilon theophrasti; conditions: Nachauflauf, 1280 g/ha, visual rating after ca. 3 weeks vs untreated controls
From the text: as §3

[19] = tested on: AMARE; experiment: as above; assay type: in vivo, Amaranthus retroflexus; conditions: Nachauflauf, 1280 g/ha, visual rating after ca. 3 weeks vs untreated controls
From the text: as §3

[20] = tested on: PHBPU; experiment: as above; assay type: in vivo, Pharbitis purpurea; conditions: Nachauflauf, 1280 g/ha, visual rating after ca. 3 weeks vs untreated controls
From the text: as §3

SMILES: O=C(NC(c1ccon1)c1ccc(Cl)cc1Cl)c1ccc(Cl)nc1 (stereo not shown) [Beispiel 201]
- herbizide Wirkung STEME [1]: 100%
- herbizide Wirkung VIOTR [2]: 100%
- herbizide Wirkung VERPE [3]: 100%

SMILES: CCCOc1cc(C)nc(Br)c1C(=O)NC(c1cnc(Cl)c(Cl)c1)c1ccon1 (stereo not shown) [Beispiel 223]
- logP [4]: 2.6

SMILES: Cc1cc(OC(C)C)c(C(=O)NC(c2ccc(Cl)cc2)c2ccon2)c(Cl)n1 (racemic) [Beispiel 152, 2-Chlor-N-[(4-chlorphenyl)(isoxazol-3-yl)methyl]-4-isopropoxy-6-methylnicotinamid]
- herbizide Wirkung STEME [1]: 90%
- herbizide Wirkung SETVI [5]: 100%
- herbizide Wirkung ECHCG [6]: 90%
- herbizide Wirkung AMARE [7]: 100%
- herbizide Wirkung VIOTR [2]: 100%
- herbizide Wirkung ALOMY [8]: 80%
- herbizide Wirkung ABUTH [9]: 100%
- herbizide Wirkung gegen Schadpflanzen [10]: sehr gute herbizide Wirkung
- herbizide Wirkung MATIN [11]: 100%
- herbizide Wirkung LOLMU [12]: 90%
- herbizide Wirkung VERPE [3]: 100%
- herbizide Wirkung POLCO [13]: 100%

SMILES: COc1cccc(C(NC(=O)c2nsc(Cl)c2Cl)c2ccon2)c1 (racemic) [Beispiel 306, 4,5-Dichlor-N-[(3-methoxyphenyl)(isoxazol-3-yl)methyl]isothiazol-3-carboxamid]
- logP [4]: 3.44

SMILES: COc1ccc(C(NC(=O)c2cnn(C)c2Cl)c2ccon2)c(F)c1 (racemic) [Beispiel 260, 5-Chlor-N-[(2-fluor-4-methoxyphenyl)(isoxazol-3-yl)methyl]-1-methyl-1 H-pyrazol-4-carboxamid]
- logP [4]: 1.8

SMILES: COc1ccc(C(NC(=O)c2cn(C)nc2C)c2ccon2)c(F)c1 (stereo not shown) [Beispiel 266]
- herbizide Wirkung VERPE [14]: 90%
- herbizide Wirkung STEME [15]: 100%
- herbizide Wirkung VIOTR [16]: 80%

SMILES: COc1c(C(=O)NC(c2ccc(Cl)cc2)c2ccon2)csc1Br (stereo not shown) [Beispiel 290]
- logP [4]: 3.64

SMILES: COc1c(C(=S)NC(c2ccc(Cl)cc2)c2ccon2)csc1Br (stereo not shown) [Beispiel 313, 5-Brom-N-[(4-chlorphenyl)(isoxazol-3-yl)methyl]-4-methoxythiophen-3-carbothioamid]
- logP [4]: 4.51

SMILES: COc1ccncc1C(=O)NC(c1ccc(Cl)cc1)c1ccon1 (stereo not shown) [Beispiel 188]
- logP [4]: 1.18

SMILES: COc1cccc(C(NC(=O)c2c(OC(C)C)cc(C)nc2Br)c2ccon2)c1 (stereo not shown) [Beispiel 158]
- logP [4]: 2.16

SMILES: Cc1ncc(C(=O)NC(c2ccc(Cl)cc2)c2ccon2)c(C)c1Br (stereo not shown) [Beispiel 131]
- logP [4]: 2.63

SMILES: COc1ccncc1C(=O)NC(c1ccc(F)c(F)c1)c1ccon1 (stereo not shown) [Beispiel 190]
- logP [4]: 1.07

SMILES: COc1ccc(C(NC(=O)c2cnc(C)c(Br)c2C)c2ccon2)c(F)c1 (stereo not shown) [Beispiel 132]
- logP [4]: 2.28

SMILES: COc1ccc(C(NC(=S)c2cnn(C)c2Cl)c2ccon2)c(F)c1 (stereo not shown) [Beispiel 312, 5-Chlor-N-[(2-fluor-4-methoxyphenyl)(isoxazol-3-yl)methyl]-1-methyl-1 H-pyrazol-4-carbothioamid]
- logP [4]: 1.76

SMILES: Cc1cc(OC(C)C)c(C(=O)NC(c2ccc(F)c(F)c2)c2ccon2)c(Cl)n1 (racemic) [Beispiel 174, 2-Chlor-N-[(3,4-difluorphenyl)(isoxazol-3-yl)methyl]-4-isopropoxy-6-methylnicotinamid]
- herbizide Wirkung STEME [1]: 100%
- herbizide Wirkung AMARE [7]: 100%
- herbizide Wirkung ALOMY [8]: 60%
- herbizide Wirkung MATIN [17]: 90%
- logP [4]: 2.26
- herbizide Wirkung VERPE [14]: 100%
- herbizide Wirkung ABUTH [9]: 100%
- herbizide Wirkung MATIN [11]: 80%
- herbizide Wirkung STEME [15]: 100%
- herbizide Wirkung VERPE [3]: 100%
- herbizide Wirkung ABUTH [18]: 100%
- herbizide Wirkung AMARE [19]: 100%
- herbizide Wirkung PHBPU [20]: 80%
- herbizide Wirkung VIOTR [16]: 80%
